Assay results taken from patent US20260077018A1, “TREATMENT OF MILD TRAUMATIC BRAIN INJURY” (OXEIA BIOPHARMACEUTICALS, INC., priority 2022, published 2026).
No end group written: not given here. *: point of attachment. Octanoyl = CCCCCCCC(=O)*

Test system: persistently symptomatic concussion patients
Assay: Phase 2 study interim analysis, efficacy endpoints overall
Format: in vivo, human
Method: A Phase 2 study of treatment of persistently symptomatic concussion patients with ghrelin (OXE-103) was undertaken at the University of Kansas Medical Center generally as described in Example 1. The interim results are reported herein (FIG. 1).
A study to treat patients with sub-acute concussion using a pharmaceutical formulation of ghrelin (OXE-103) was performed. The completed results from treatment group of 10 patients were compared to a 3 patient placebo group receiving standard of care (SoC). Additionally, two other patients are currently undergoing the treatment arm of the study at the time of the interim report. The study was performed in a randomized, double blind fashion and compared using self-report symptom scoring, quality of life questionnaires, computerized cognitive testing assessing executive function, memory and processing speed, and accelerometer-based balance scoring.
Efficacy endpoints for the interim study were: PCSS—22 symptom concussion scoring scale, QOLIBRI—WHO TBI specific Quality of Life after Brain Injury, and BRAIN CHECK—digital assessment of cognition, balance, visual changes (510K FDA approved).
Feedback from clinicians indicated a 20% decrease in concussion symptoms would be considered clinically significant improvement. Graphs of QOLIBRI (FIG. 3A), PCSS—total severity score (FIG. 4A), PGAS (FIG. 5A), 4MB3S (FIG. 6A), and PCSS number of symptoms (FIG. 7A) show a black line for 20% change from baseline. The graphs in FIGS. 3A, 4A, 5A, 6A, and 7A show average scores per time point for each endpoint at days 1, 4, 8, 11, 15, 21 and 44 for both the treatment and control (SoC) arms. For PCSS, number of symptoms, PGAS, and 4MBS, a patient is considered to have responded to treatment if percent change is less than or equal to −20% compared to baseline. For QOLIBRI, a patient is considered to have responded to treatment if percent change is greater than or equal to 20% compared to baseline.

ghrelin (GSS(Octanoyl)FLSPEHQRVQQRKESKKPPAKLQPR; UniProt Q9UBU3 24-51, looked up) [OXE-103, naturally occurring peptide comprising 28 amino acids that include an N-octanoyl group at the 3-position of serine]
durability of treatment effects (across study endpoints): at least 44 days
Responder Rate (RR) (both endpoints, by 40 days after start of treatment): 80%
onset of treatment effect (persistently effected population): 8 to 10 days
improvement (within 8-10 days of treatment, interim time point): greater than 20%
